According to patent publication US4894377A, “β-carbolines and their use as medicinal agents” (Schering Aktiengesellschaft, priority 1983, dated 1990):
In brackets after ≈: the same amount, converted by molar mass.

Assays:
benzodiazepine receptors = test: displacement of specific binding of 3H flunitrazepam in vitro (rat cerebral membrane suspension); details: 50% displacement of specific binding of 3H flunitrazepam (1.0 nM, 0° C.), rat cerebrum
[1] = tested on: convulsions induced by pentylenetetrazole (Pentazol); test: protection from convulsions and death induced by pentylenetetrazole (Pentazol); type: in vivo; details: Mus musculus, ip; protects 50% of mice from convulsions and death; test compound intraperitoneal, 15-30 minutes before Pentazol
Protocol: (§1) The compounds of this invention show, in a pharmacological test, anxiolytic, antiagressive, and anticonvulsive activities. Two testing systems were employed to examine the anticonvulsive effect. The elimination of convulsions induced, on the one hand, by pentylenetetrazole (Pentazol) and, on the other hand, by 6,7-dimethoxy-4-ethyl-β-carboline-3-carboxylic acid methyl ester (DMCM) was examined. Pentazol and DMCM, respectively, are administered 15-30 minutes after intraperitoneal administration of the test compound in an amount of 15 mg/kg as an aqueous solution (pH 7) intraperitoneally and, respectively, in an amount of 150 mg/kg as a hydrochloric acid solution (pH 2-3) subcutaneously. These quantities induce clonic and tonic convulsions leading to death in untreated animals.
(§2) The ED50 values indicated in the table were determined according to the method by Litchfield and Wilcoxon (1949) as the amount of antagonistically active compound required to protect 50% of the animals from convulsions and death.

[2] = tested on: convulsions induced by 6,7-dimethoxy-4-ethyl-β-carboline-3-carboxylic acid methyl ester (DMCM); test: protection from convulsions and death induced by DMCM; type: in vivo; details: Mus musculus, ip; protects 50% of mice from convulsions and death; test compound intraperitoneal, 15-30 minutes before DMCM
Protocol: as §1, §2

[3] = tested on: clonic convulsions at 111 dB; test: audiogenic seizure test; type: in vivo; details: Mus musculus, ip, 0.5 h; dose at which 40% of mice show no convulsions at 111 dB (14 kHz); DBA/2 mice, intraperitoneal, 30 minutes prior
Protocol: The compounds of this invention also show a convulsion-relieving and/or convulsion-eliminating effect in the audiogenic seizure test. For this purpose, 18-21 day old male mice weighing 8-12 g (DBA/2 mice) receive intraperitoneally the compound to be tested as an ultrasound microsuspension in water/"Cremofor" EL (95:5) 30 minutes prior to testing. The animals are then exposed, in a soundproof wooden box (25×22×15 cm), to a sinusoidal sound of 14 kHz at 111 dB. The sound is generated immediately after transferring the animal into the box. Occurrence of clonic convulsions is recorded for 30 seconds. The ED50 value in the table indicates the dose at which 40% of the mice show no convulsions at 111 dB (80% of the control mice show convulsions at 111 dB).

Structure (SMILES)	IC50 (in vitro) (benzodiazepine receptors)	ED50 [1]	ED50 [2]	ED50 [3]
CCOC(=O)c1ncc2[nH]c3cccc(OCc4ccccc4F)c3c2c1COC [Substituent 2-fluoro, 5-(2-fluorobenzyloxy)-4-methoxymethyl-β-carboline-3-carboxylic acid ethyl ester]	0.3 ng/mL (≈ 0.735 nM)	13 mg/kg	0.4 mg/kg	0.05 mg/kg
CCOC(=O)c1ncc2[nH]c3cccc(OCc4cccc(OC)c4)c3c2c1COC [Substituent 3-methoxy, 5-(3-methoxybenzyloxy)-4-methoxymethyl-β-carboline-3-carboxylic acid ethyl ester]	0.5 ng/mL (≈ 1.19 nM)	> 100 mg/kg	–	–
CCOC(=O)c1ncc2[nH]c3cccc(OCc4ccc(F)cc4)c3c2c1COC [Substituent 4-fluoro, 5-(4-fluorobenzyloxy)-4-methoxymethyl-β-carboline-3-carboxylic acid ethyl ester]	0.4 ng/mL (≈ 0.979 nM)	30 mg/kg	0.1 mg/kg	0.2 mg/kg
CCOC(=O)c1ncc2[nH]c3cccc(OC(C)c4cccc(Cl)c4)c3c2c1COC (stereo not drawn) [α-methyl, 3-chloro, 5-[1-(3-chlorophenyl)ethoxy]-4-methoxymethyl-β-carboline-3-carboxylic acid ethyl ester]	4.3 ng/mL (≈ 9.8 nM)	2 mg/kg	–	–
CCOC(=O)c1ncc2[nH]c3cccc(OCc4ccc(C)c(C)c4)c3c2c1COC [3,4-dimethyl, 5-(3,4-dimethylbenzyloxy)-4-methoxymethyl-β-carboline-3-carboxylic acid ethyl ester]	1.7 ng/mL (≈ 4.06 nM)	30 mg/kg	–	–
CCOC(=O)c1ncc2[nH]c3cccc(OCc4ccc(Cl)cc4)c3c2c1COC [Substituent 4-chloro, 5-(4-chlorobenzyloxy)-4-methoxymethyl-β-carboline-3-carboxylic acid ethyl ester]	0.9 ng/mL (≈ 2.12 nM)	> 30 mg/kg	–	–
CCOC(=O)c1ncc2[nH]c3cccc(OCCCc4ccccc4)c3c2c1COC	1.9 ng/mL (≈ 4.54 nM)	30 mg/kg	5.5 mg/kg	–
CCOC(=O)c1ncc2[nH]c3cccc(OCc4ccccc4)c3c2c1COC	2 ng/mL (≈ 5.12 nM)	15 mg/kg	0.6 mg/kg	0.5 mg/kg
CCOC(=O)c1ncc2[nH]c3cccc(OCc4cccc(Br)c4)c3c2c1COC [Substituent 3-bromo, 5-(3-bromobenzyloxy)-4-methoxymethyl-β-carboline-3-carboxylic acid ethyl ester]	0.8 ng/mL (≈ 1.7 nM)	6 mg/kg	–	–
CCOC(=O)c1ncc2[nH]c3cccc(OCc4ccc([N+](=O)[O-])cc4)c3c2c1COC [Substituent 4-nitro, 5-(4-nitrobenzyloxy)-4-methoxymethyl-β-carboline-3-carboxylic acid ethyl ester]	0.2 ng/mL (≈ 0.459 nM)	> 50 mg/kg	–	–
CCOC(=O)c1ncc2[nH]c3cccc(OCc4cccc(C(F)(F)F)c4)c3c2c1COC [3-trifluoromethyl, 5-(3-trifluoromethylbenzyloxy)-4-methoxymethyl-β-carboline-3-carboxylic acid ethyl ester]	1.4 ng/mL (≈ 3.05 nM)	12 mg/kg	–	–
CCOC(=O)c1ncc2[nH]c3cccc(OCCc4ccccc4)c3c2c1COC	0.8 ng/mL (≈ 1.98 nM)	40 mg/kg	–	–
CCOC(=O)c1ncc2[nH]c3cccc(OCc4cccc(F)c4)c3c2c1COC [Substituent 3-fluoro, 5-(3-fluorobenzyloxy)-4-methoxymethyl-β-carboline-3-carboxylic acid ethyl ester]	0.3 ng/mL (≈ 0.735 nM)	12 mg/kg	0.3 mg/kg	0.05 mg/kg
CCOC(=O)c1ncc2[nH]c3cccc(OCc4ccc(Cl)c(Cl)c4)c3c2c1COC [3,4-dichloro, 5-(3,4-dichlorobenzyloxy)-4-methoxymethyl-β-carboline-3-carboxylic acid ethyl ester]	2.1 ng/mL (≈ 4.57 nM)	6 mg/kg	2.2 mg/kg	–
CCOC(=O)c1ncc2[nH]c3cccc(OCc4cccc(Cl)c4)c3c2c1COC [Substituent 3-chloro, 5-(3-chlorobenzyloxy)-4-methoxymethyl-β-carboline-3-carboxylic acid ethyl ester]	1.4 ng/mL (≈ 3.3 nM)	0.9 mg/kg	0.3 mg/kg	0.08 mg/kg
CCOC(=O)c1ncc2[nH]c3cccc(OC(C)c4ccccc4)c3c2c1COC (stereo not drawn) [α-methyl]	1.1 ng/mL (≈ 2.72 nM)	3 mg/kg	0.1 mg/kg	0.01 mg/kg
CCOC(=O)c1ncc2[nH]c3cccc(OCc4ccc(C)cc4)c3c2c1COC [Substituent 4-methyl, 5-(4-methylbenzyloxy)-4-methoxymethyl-β-carboline-3-carboxylic acid ethyl ester]	0.9 ng/mL (≈ 2.23 nM)	30 mg/kg	–	–
